# Results from US12662473B2, “Inhibitors for programmed cell necrosis and preparation method therefor and use thereof” (SHANGHAI INSTITUTE OF ORGANIC CHEMISTRY, CHINESE ACADEMY OF …, priority 2019, dated 2026).
# Read-outs that look alike come from different tables or passages of the source.
# How the values were obtained:
# [1] = system: RIPK1 phosphorylation and MLKL oligomerization in FADD deficient Jurkat cells; test: Western blot of key proteins in TNFα-induced FADD deficient Jurkat cell programmed necrosis pathway; type: cell-based, human; conditions: TNFα-stimulated FADD deficient Jurkat cells, FIG. 2
# From the text: In order to verify whether the compounds of the present invention can inhibit programmed cell death by inhibiting the activity of RIPK1, and to detect the activation of downstream proteins of programmed necrosis pathway, TNFα was used to stimulate FADD deficient Jurkat to produce programmed necrosis, and the compounds of the present invention were used to treat the cells at the same time. Cells were harvested after a period of time to detect phosphorylation of RIPK1 and oligomerization of MLKL using western blot.
# FADD deficient Jurkat cells (human peripheral blood leukemia T cell line) were cultured in vitro. […] The BCA protein quantification kit was used to detect the protein content of each group, and PIPA lysis buffer was used to adjust the protein amount to make the final volume of 100 μL. […]
# 25 μL of 5* protein loading buffer was added to 100 μL of cell lysate, and the mixture was heated at 95° C. for 10 min After the samples were cooled, electrophoresis was carried out using SDS-PAGE (9%) gel at 60V, and then switched to 120V after 30 min until the leading band was electrophoresed to the bottom of the gel. […] The resulting sample was incubated with ECL luminescent solution and detected the luminescent signal.
# [2] = system: L929 cells; test: TNF-induced programmed cell necrosis inhibition, Cell Titer-Glo viability; type: cell-based, mouse; conditions: Mus musculus, read-out: EC50 inhibitory activity on programmed cell necrosis
# Procedure, shortened: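 L929 mouse fibroblasts were pretreated 1 h at 37 °C with compound plus Smac (500 nM solution added), then stimulated with TNFα (500 ng/mL solution added) for 14 h. Viability was read as ATP by CellTiter-Glo luminescence, with unstimulated DMSO wells set to 100%, and EC50 values were calculated.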
structure (smiles),measurement,setting,value
Cc1noc([C@@H]2CCCN2C(=O)C(C)(C)Oc2ccc(Cl)cc2)n1 [QY-1-98],oligomerization of MLKL,[1],can inhibit
same,phosphorylation of RIPK1,[1],can inhibit the phosphorylation of RIPK1
same,EC50,"[2]; L929, 14 h, L929 cells (mouse), TNFa + SM164",1290 nM
same,EC50,"[2]; L929, L929 cells (mouse), TNFa",213 nM
